Assay results as given in patent US7268231B2, “1,5-Naphthyridine azolinone” (Hoffmann-La Roche Inc., priority 2004, dated 2007).

Biological target: T1, recombinant human CDK1/Cyclin B complex (Homo sapiens, UniProt P06493)
T1 construct: made in house; host or cells: High Five insect cells (baculovirus) for CDK1/GST-cyclin B; M15 E. coli for the Rb substrate
Experiment: CDK1/Cyclin B kinase assay (FlashPlate or HTRF)
Format: biochemical
Settings: Rb protein substrate, Ki=IC50/(1+[S]/Km)
Description: To determine inhibition of CDK1 activity, either FlashPlate™ (NEN™-Life Science Products) assay or HTRF assay was performed. Both types of kinase assays were carried out using recombinant human CDK1/Cyclin B complex. GST-cyclinB (GST-cycB) and CDK1 cDNA clones in baculovirus vectors were provided by Dr. W. Harper at the Baylor College of Medicine, Houston, Tex. Proteins were co-expressed in High Five™ insect cells and the complex was purified on glutathione Sepharose resin (Pharmacia, Piscataway, N.J.) as previously described (Harper, J. W. et al. Cell 1993, 75, 805-816). A 6×-Histidine tagged truncated form of retinoblastoma (Rb) protein (amino acid 386-928) was used as the substrate for the CDK1/Cyclin B assay (the expression plasmid was provided by Dr. Veronica Sullivan, Department of Molecular Virology, Roche Research Centre, Welwyn Garden City, United Kingdom). The Rb protein is a natural substrate for phosphorylation by CDK1 (see Herwig and Strauss Eur. J. Biochem. Vol. 246 (1997) pp. 581-601 and the references cited therein). The expression of the 62Kd protein was under the control of an IPTG inducible promoter in an M15 E. coli strain. Cells were lysed by sonication and purification was carried out by binding lysates at pH 8.0 to a Ni-chelated agarose column pretreated with 1 mM imidazole. The resin was then washed several times with incrementally decreasing pH buffers to pH 6.0, and eluted with 500 mM imidazole. Eluted protein was dialysed against 20 mM HEPES pH 7.5, 30% glycerol, 200 mM NaCl, and 1 mM DTT. Purified Rb fusion protein stocks were quantitated for protein concentration, aliquoted, and stored at −70° C.
For the FlashPlate kinase assay, 96-well FlashPlates were coated with Rb protein at 10 μg/ml, using 100 μl per well. Plates were incubated at 4° C. overnight or at room temperature for 3 hours on a shaker. To control for nonspecific phosphorylation, one row of wells was coated with 100 μl/well coating buffer (20 mM HEPES, 0.2 M NaCl). Plates were then washed twice with wash buffer (0.01% Tween 20 in phosphate-buffered saline). Compounds to be tested (“test compounds”) were added to the wells at 5× final concentration. Reactions were initiated by immediate addition of 40 μl reaction mix (25 mM HEPES, 20 mM MgCl2, 0.002% Tween 20, 2 mM DTT, 1 μM ATP, 4 nM 33P-ATP) and a sufficient amount of enzyme to give counts that were at least 10-fold above background. Plates were incubated at room temperature on a shaker for 30 minutes. Plates were washed four times with the wash buffer, sealed, and counted on the TopCount scintillation counter (Packard Instrument Co., Downers Grove, Ill.]. The percent inhibition of Rb phosphorylation, which is a measure of the inhibition of CDK activity, was determined according to the following formula:
[formula] where “test compound” refers to the average counts per minute of the test duplicates, “nonspecific” refers to the average counts per minute when no CDK1/Cyclin B, etc., was added, and “total” refers to the average counts per minute when no compound was added. […] The value of the inhibitor constant Ki is calculated by the following: Ki=IC50/(1+[S]/Km), where [S] is the ATP concentration and Km is Michaelis constant.
The Homogeneous Time Resolved Fluorescence (HTRF) kinase assay was carried out in 96-well polypropylene plates (BD Biosciences, Bedford, Mass.). […]

T1 sequence (P06493 whole entry): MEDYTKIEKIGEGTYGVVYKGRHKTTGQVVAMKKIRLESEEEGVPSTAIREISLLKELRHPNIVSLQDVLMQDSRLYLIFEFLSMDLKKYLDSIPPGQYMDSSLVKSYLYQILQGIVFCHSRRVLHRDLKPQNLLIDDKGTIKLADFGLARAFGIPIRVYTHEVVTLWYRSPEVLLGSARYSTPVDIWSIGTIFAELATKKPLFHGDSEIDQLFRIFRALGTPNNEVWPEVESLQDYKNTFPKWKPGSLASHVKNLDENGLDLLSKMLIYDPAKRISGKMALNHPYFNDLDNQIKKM
T1 sequence (P14635 whole entry partner): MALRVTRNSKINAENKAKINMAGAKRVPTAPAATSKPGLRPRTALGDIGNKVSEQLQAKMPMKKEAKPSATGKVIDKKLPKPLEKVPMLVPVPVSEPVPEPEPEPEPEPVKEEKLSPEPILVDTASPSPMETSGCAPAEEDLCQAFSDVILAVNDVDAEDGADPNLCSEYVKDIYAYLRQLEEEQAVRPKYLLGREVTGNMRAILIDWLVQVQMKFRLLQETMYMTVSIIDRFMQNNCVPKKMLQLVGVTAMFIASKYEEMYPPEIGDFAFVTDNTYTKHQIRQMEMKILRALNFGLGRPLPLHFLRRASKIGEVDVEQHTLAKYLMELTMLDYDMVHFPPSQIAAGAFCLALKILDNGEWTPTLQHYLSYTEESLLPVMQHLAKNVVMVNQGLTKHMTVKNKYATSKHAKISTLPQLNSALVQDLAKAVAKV

SMILES | Ki [nM]
O=C1N=C(NCc2ccc(C(F)(F)F)cc2C(F)(F)F)N/C1=C\c1ccc2ncccc2n1 [Example 20, 2-(2,4-Bis-trifluoromethyl-benzylamino)-5-[1,5]naphthyridin-2-ylmethylene-1,5-dihydro-imidazol-4-one] | 735
Cc1cccc(Cl)c1CNC1=NC(=O)/C(=C/c2ccc3ncccc3n2)S1 [Example 12, 2-(2-Chloro-6-methyl-benzylamino)-5-[1,5]naphthyridin-2-ylmethylene-thiazol-4-one] | 31.7
O=C1N=C(NCc2ccc(F)c(Cl)c2)S/C1=C\c1ccc2ncccc2n1 [Example 8, 2-(3-Chloro-4-fluoro-benzylamino)-5-[1,5]naphthyridin-2-ylmethylene-thiazol-4-one] | 279
NC1=NC(=O)/C(=C/c2ccc3ncccc3n2)S1 [Example 4, 2-Amino-5-[1,5]naphthyridin-2-ylmethylene-thiazol-4-one] | 4670
CC(=O)NC1=NC(=O)/C(=C/c2ccc3ncccc3n2)N1 [Example 16, N-(5-[1,5]Naphthyridin-2-ylmethylene-4-oxo-4,5-dihydro-1H-imidazol-2-yl)-acetamide] | 1180
